Reference: ChEMBL document CHEMBL5550146, “Design, synthesis, and biological evaluation of novel sesquiterpene lactone derivatives as PKM2 activators with potent anti-ulcerative colitis activities” (Eur J Med Chem, 2024)
The source made the active and inactive calls. No cut-off for these calls is given here.

What was measured:
T-cell = assay: Antiproliferative activity against concanavalin A-stimulated C57BL/6 mouse T cells measured after 48 hrs by CCK8 assay; assay type: functional, cell-based; details: C57BL/6, T-cell
Pyruvate kinase PKM = Pyruvate kinase PKM (Homo sapiens, UniProt P14618); assay: Activation of recombinant human PKM2 incubated for 40 mins by pyruvate kinase assay
Pyruvate kinase PKM, sequence (P14618 whole entry): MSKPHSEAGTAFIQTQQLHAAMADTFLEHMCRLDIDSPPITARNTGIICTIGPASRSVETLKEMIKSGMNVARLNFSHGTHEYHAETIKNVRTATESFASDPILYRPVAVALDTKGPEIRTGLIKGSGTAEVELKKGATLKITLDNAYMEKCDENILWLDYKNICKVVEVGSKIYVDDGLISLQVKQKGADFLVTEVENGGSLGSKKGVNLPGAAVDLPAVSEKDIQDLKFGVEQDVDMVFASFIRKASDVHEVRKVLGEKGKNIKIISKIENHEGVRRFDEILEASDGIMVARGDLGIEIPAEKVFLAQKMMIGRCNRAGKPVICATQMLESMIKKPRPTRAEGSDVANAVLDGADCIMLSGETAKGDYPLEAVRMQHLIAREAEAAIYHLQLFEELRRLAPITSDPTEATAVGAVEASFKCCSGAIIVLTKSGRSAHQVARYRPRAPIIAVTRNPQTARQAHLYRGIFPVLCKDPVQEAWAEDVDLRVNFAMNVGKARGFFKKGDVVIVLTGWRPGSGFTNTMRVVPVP

Mus musculus = assay: Antiinflammatory activity in DSS-induced colitis female C57BL/6 mouse model assessed as reduction in shortening of colon length at 200 mg/kg, ip administered for 12 days with subsequent treatment of DSS for 9 days followed by drinking water for 3 days; assay type: functional, organism-based; details: time 12.0 day

What does the source list for `C=C1C(=O)O[C@H]2[C@H]1CC/C(CNS(=O)(=O)c1ccc(F)cc1)=C\CC[C@@]1(C)O[C@@H]21`?
IC50 (T-cell): 1500 nM; AC50 (Pyruvate kinase PKM): 1230 nM

With `C=C1C(=O)O[C@H]2[C@H]1CC/C(CNS(=O)(=O)C(F)(F)F)=C\CC[C@@]1(C)O[C@@H]21` as the molecule, how does the IC50 (T-cell) read?
The IC50 was 2980 nM.

And the AC50 (Pyruvate kinase PKM)?
The AC50 was greater than 3000 nM.

`C=C1C(=O)O[C@H]2[C@H]1CC/C(COC(=O)N1CCN(C)CC1)=C\CC[C@@]1(C)O[C@@H]21` was tested. Which IC50 (T-cell) did it give?
Its IC50 is 1040 nM.

And the AC50 (Pyruvate kinase PKM)?
Its AC50 is 567 nM.

What does the source list for `C=C1C(=O)O[C@H]2[C@H]1CC/C(CNS(=O)(=O)C1CC1)=C\CC[C@@]1(C)O[C@@H]21`?
IC50 (T-cell): 2650 nM; AC50 (Pyruvate kinase PKM): > 3000 nM

For `COc1ccc(/C=C2/C(=O)O[C@H]3[C@H]2CC/C(C)=C/CC[C@@]2(C)O[C@@H]32)cc1`, which IC50 (T-cell) is on record?
The IC50 was 4600 nM.

`C=C1C(=O)O[C@H]2[C@H]1CC/C(COC)=C\CC[C@@]1(C)O[C@@H]21` was tested. Which IC50 (T-cell) did it give?
Its IC50 is 2330 nM.

And the AC50 (Pyruvate kinase PKM)?
Its AC50 is greater than 3000 nM.

Which results are given for `C=C1C(=O)O[C@H]2[C@H]1CC/C(CNS(=O)(=O)c1ccccc1)=C\CC[C@@]1(C)O[C@@H]21`?
IC50 (T-cell): 1200 nM; AC50 (Pyruvate kinase PKM): 637 nM

Which IC50 (T-cell) does the source give for `C=C1C(=O)O[C@@H]2C3O[C@]3(C)CC/C=C(\C)CC[C@@H]12` (some centres undefined) here?
Its IC50 is 1960 nM.

What about the AC50 (Pyruvate kinase PKM) of the same molecule?
Its AC50 is 1060 nM.

`C=C1C(=O)O[C@H]2[C@H]1CC/C(COC(=O)N(CCC)CCC)=C\CC[C@@]1(C)O[C@@H]21` was tested. Which IC50 (T-cell) did it give?
Its IC50 is 1180 nM.

And the AC50 (Pyruvate kinase PKM)?
The AC50 was 660 nM.

With `C=C1C(=O)O[C@H]2[C@H]1CC/C(COC(=O)NCCN(C)C)=C\CC[C@@]1(C)O[C@@H]21` as the molecule, how does the IC50 (T-cell) read?
The IC50 was 2880 nM.

What about the AC50 (Pyruvate kinase PKM) of the same molecule?
Its AC50 is greater than 3000 nM.

How did the IC50 (T-cell) turn out when `C=C1C(=O)O[C@H]2[C@H]1CC/C(COC(=O)NCC)=C\CC[C@@]1(C)O[C@@H]21` was run?
The IC50 was 1700 nM.

And the AC50 (Pyruvate kinase PKM)?
The AC50 was 2220 nM.

Which IC50 (T-cell) does the source give for `C/C1=C\CC[C@@]2(C)O[C@H]2[C@H]2OC(=O)/C(=C/c3cccc4ccccc34)[C@@H]2CC1` here?
The IC50 was 4530 nM.

With `C=C1C(=O)O[C@H]2[C@H]1CC/C(CNS(=O)(=O)c1ccc(OC)cc1)=C\CC[C@@]1(C)O[C@@H]21` as the molecule, how does the IC50 (T-cell) read?
The IC50 was 1040 nM.

And the AC50 (Pyruvate kinase PKM)?
The AC50 was 492 nM.

For `C=C1C(=O)O[C@H]2[C@H]1C[C@@H](F)/C(C)=C/CC[C@@]1(C)O[C@@H]21`, which IC50 (T-cell) is on record?
Its IC50 is 2370 nM.

And the AC50 (Pyruvate kinase PKM)?
The AC50 was greater than 3000 nM.

How did the IC50 (T-cell) turn out when `C/C1=C\CC[C@@]2(C)O[C@H]2[C@H]2OC(=O)/C(=C/c3ccccc3)[C@@H]2CC1` was run?
Its IC50 is 4270 nM.

With `C=C1C(=O)O[C@H]2[C@H]1CC/C(C=O)=C\CC[C@@]1(C)O[C@@H]21` as the molecule, how does the IC50 (T-cell) read?
Its IC50 is greater than 10000 nM.

How did the IC50 (T-cell) turn out when `C=C1C(=O)O[C@H]2[C@H]1CC/C(CO)=C\CC[C@@]1(C)O[C@@H]21` was run?
The IC50 was 1590 nM.

And the AC50 (Pyruvate kinase PKM)?
The AC50 was 867 nM.

How did the IC50 (T-cell) turn out when `C=C1C(=O)O[C@H]2[C@H]1C[C@@H](Br)/C(C)=C/CC[C@@]1(C)O[C@@H]21` was run?
The IC50 was 3840 nM.

Which IC50 (T-cell) does the source give for `C=C1C(=O)O[C@H]2[C@H]1CC/C(COC(=O)NC)=C\CC[C@@]1(C)O[C@@H]21` here?
Its IC50 is 2600 nM.

And the AC50 (Pyruvate kinase PKM)?
Its AC50 is greater than 3000 nM.

What does the source list for `C=C1C(=O)O[C@H]2[C@H]1CC/C(COC(=O)N1CCN(CC)CC1)=C\CC[C@@]1(C)O[C@@H]21`?
IC50 (T-cell): 2370 nM; AC50 (Pyruvate kinase PKM): > 3000 nM

What does the source list for `C=C1C(=O)O[C@H]2[C@H]1CC/C(COC(=O)NCCN(CC)CC)=C\CC[C@@]1(C)O[C@@H]21`?
IC50 (T-cell): 2520 nM; AC50 (Pyruvate kinase PKM): > 3000 nM

What does the source list for `C=C1C(=O)O[C@H]2[C@H]1CC/C(COC(=O)NCCC)=C\CC[C@@]1(C)O[C@@H]21`?
IC50 (T-cell): 1270 nM; AC50 (Pyruvate kinase PKM): 812 nM

What does the source list for `C=C1C(=O)O[C@H]2[C@H]1CC/C(CNS(C)(=O)=O)=C\CC[C@@]1(C)O[C@@H]21`?
IC50 (T-cell): 3150 nM; AC50 (Pyruvate kinase PKM): > 3000 nM

How did the IC50 (T-cell) turn out when `C=C1C(=O)O[C@H]2[C@H]1C[C@@H](O)/C(C)=C/CC[C@@]1(C)O[C@@H]21` was run?
Its IC50 is 3470 nM.

How did the IC50 (T-cell) turn out when `C=C1C(=O)O[C@H]2[C@H]1CC/C(COC(=O)N(C)C)=C\CC[C@@]1(C)O[C@@H]21` was run?
Its IC50 is 1630 nM.

And the AC50 (Pyruvate kinase PKM)?
The AC50 was 1570 nM.

`Nc1ccc(O)c(C(=O)O)c1` was tested. Which Activity (Mus musculus) did it give?
The Activity was “Active”.

Which IC50 (T-cell) does the source give for `C=C1C(=O)O[C@H]2[C@H]1CC/C(CNS(=O)(=O)c1ccc([N+](=O)[O-])cc1)=C\CC[C@@]1(C)O[C@@H]21` here?
The IC50 was 1320 nM.

And the AC50 (Pyruvate kinase PKM)?
Its AC50 is 966 nM.

For `C=C1C(=O)O[C@H]2[C@H]1CC/C(C(=O)O)=C\CC[C@@]1(C)O[C@@H]21`, which IC50 (T-cell) is on record?
The IC50 was greater than 10000 nM.

`C=C1C(=O)O[C@H]2[C@H]1CC/C(COC(=O)N1CCCC1)=C\CC[C@@]1(C)O[C@@H]21` was tested. Which IC50 (T-cell) did it give?
Its IC50 is 1780 nM.

And the AC50 (Pyruvate kinase PKM)?
The AC50 was 736 nM.

Which results are given for `C=C1C(=O)O[C@H]2[C@H]1CC/C(CNS(=O)(=O)CC)=C\CC[C@@]1(C)O[C@@H]21`?
IC50 (T-cell): 2970 nM; AC50 (Pyruvate kinase PKM): > 3000 nM

Which IC50 (T-cell) does the source give for `C=C1C(=O)O[C@H]2[C@H]1CC/C(COC(=O)NOC)=C\CC[C@@]1(C)O[C@@H]21` here?
The IC50 was 2340 nM.

What about the AC50 (Pyruvate kinase PKM) of the same molecule?
The AC50 was greater than 3000 nM.
